Earlier results, collected in patent publication US7759468B1, “Bioactive peptide-based probes” (priority 2003, dated 2010).

Tested on: L. lactis ssp. lactis C2
Settings: known / from the literature; cited from earlier work

## Glu-Glu [Glu-Glu peptide]
  Inhibition of growth: potent inhibitor of growth
